Data on 23 compounds can be found in PubChem BioAssay (NCI).

Test systems include K-562 leukemia; RPMI-8226 leukemia; RXF 393 renal; SF-295 CNS; SNB-75 CNS; SW-620 colon; TK-10 renal; U251 CNS; HOP-62 NSCLC.
Test in all cases: NCI-60 cell line screen, 48 h

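Protocol summary: plate cells (96-well), add compound at 5 concentrations, incubate 48 h, interpolate endpoints linearly. The concentration for 50% growth inhibition is given as GI50. The concentration for full growth arrest is given as TGI.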

`CCOC(=O)c1ccc(N2C(=O)Cc3ccccc3C2=O)cc1`: the TGI in the test with K-562 leukemia, in the test on RPMI-8226 leukemia, in the test on RXF 393 renal, in the test with SF-295 CNS, with SNB-75 CNS and with SW-620 colon was above 100 µM throughout. Besides, the TGI with TK-10 renal and with U251 CNS was above 100 µM in each case.
In the case of `O=C1C(=O)N(c2nccs2)C(=O)C(=O)C1c1nc2ccccc2s1`, the TGI in the test with HOP-62 NSCLC, in the test on RPMI-8226 leukemia, in the test with RXF 393 renal, in the test on SF-295 CNS, in the test with SNB-75 CNS and with SW-620 colon was above 100 µM throughout. For the same compound, the TGI in the test with TK-10 renal and with U251 CNS was above 100 µM throughout.
As to `CCN(CC)c1ccc(N=C2C=C(Cl)C(=O)c3ncccc32)c(C)c1`, the TGI turned out to be 25 µM in the test with HOP-62 NSCLC; 11.1 µM in the test with K-562 leukemia; 90.3 µM in the test with RPMI-8226 leukemia; 17.5 µM in the test with RXF 393 renal; 35.9 µM in the test with SF-295 CNS; 88.3 µM in the test on SNB-75 CNS. Also, the TGI was 17.3 µM in the test with SW-620 colon, 29.2 µM in the test on TK-10 renal and 18 µM with U251 CNS.
With `COc1nc2c(nc(N)n2C2OCC(O)C(O)C2O)c(=O)n1C` (centres undefined), the TGI in the test on HOP-62 NSCLC, with K-562 leukemia, in the test with RXF 393 renal, in the test with SF-295 CNS, in the test with SNB-75 CNS and with SW-620 colon was above 100 µM in each case. For the same compound, the TGI with TK-10 renal and with U251 CNS was above 100 µM each time.
With `O=C(Nc1ccc(Br)cc1)C(=O)C(C(=O)c1ccccc1F)C1OC(=O)c2ccccc21` (centres undefined), the TGI was 50.8 µM in the test on HOP-62 NSCLC; above 100 µM in the test on K-562 leukemia; 64.8 µM in the test on RPMI-8226 leukemia; 51.6 µM in the test with SNB-75 CNS; above 100 µM in the test on SW-620 colon; above 100 µM in the test on TK-10 renal. The compound also had a TGI with U251 CNS of 51.8 µM.
For `CC1(C(=O)O)CCOc2ccccc21` (centres undefined), the TGI in the test with HOP-62 NSCLC, in the test on K-562 leukemia, in the test with RPMI-8226 leukemia, in the test with RXF 393 renal, with SF-295 CNS and with SNB-75 CNS was above 100 µM each time. The TGI with SW-620 colon and in the test on TK-10 renal was above 100 µM each time.
Turning to `COc1cc(/C=C\c2ccc(Br)cc2)cc(OC)c1OC`, the TGI was 23.9 µM in the test on HOP-62 NSCLC; 36.8 µM in the test with K-562 leukemia; 27.6 µM in the test on RPMI-8226 leukemia; above 100 µM with SW-620 colon; 0.012 µM with U251 CNS.
In the case of `Cc1c(-c2nnc(-c3ccccc3)o2)c(=O)n(-c2ccccc2)n1C`, the TGI with HOP-62 NSCLC, in the test with K-562 leukemia, in the test with RPMI-8226 leukemia, in the test on RXF 393 renal, with SF-295 CNS and in the test on SNB-75 CNS was above 100 µM in each case. Further, the TGI in the test on SW-620 colon, with TK-10 renal and in the test with U251 CNS was above 100 µM in each case.
Regarding `N#Cc1ccc(Oc2cccc(Oc3ccccc3)c2)cc1C#N`, the GI50 in the test on HOP-62 NSCLC and with TK-10 renal was above 100 µM in each case. Besides, the TGI is above 100 µM in the test on HOP-62 NSCLC; above 100 µM in the test with K-562 leukemia; above 100 µM in the test with RXF 393 renal; above 100 µM with SF-295 CNS; 31.6 µM in the test with SNB-75 CNS; above 100 µM with SW-620 colon. The TGI with TK-10 renal and with U251 CNS was above 100 µM in each case.
Consider `COC12CCC(C(C(=O)c3ccccc3)=C1C(=O)c1ccccc1)C(O)C2` (centres undefined), for which the TGI with HOP-62 NSCLC, with K-562 leukemia, with RPMI-8226 leukemia, with SF-295 CNS, in the test on SNB-75 CNS and in the test with SW-620 colon was above 100 µM throughout. The same compound showed a TGI with TK-10 renal above 100 µM.
With `O=C(Nc1nc2ccc([N+](=O)[O-])cc2s1)C(=O)C(C(=O)c1ccncc1)C1OC(=O)c2ccccc21` (centres undefined), the TGI in the test on HOP-62 NSCLC, in the test with K-562 leukemia, in the test on RPMI-8226 leukemia, in the test with RXF 393 renal, in the test on SNB-75 CNS and with SW-620 colon was above 100 µM throughout. The TGI in the test with U251 CNS was above 100 µM.
Regarding `CS/C(c1ccccc1)=[N+](\[O-])Cc1ccccc1`, the TGI with HOP-62 NSCLC was above 100 µM; in the test on K-562 leukemia it was above 100 µM; in the test on RPMI-8226 leukemia it was 55.3 µM; with RXF 393 renal it was above 100 µM; in the test with SF-295 CNS, above 100 µM; in the test on SNB-75 CNS it was above 100 µM. Moreover, the TGI in the test on TK-10 renal and in the test with U251 CNS was above 100 µM in each case.
With `CC(NC(=O)C(=O)N/N=C1\C[C@@H](c2ccccc2)Nc2ccccc21)c1ccccc1` (some centres undefined), the TGI in the test on HOP-62 NSCLC, with RXF 393 renal, in the test with SF-295 CNS, in the test with SNB-75 CNS, with SW-620 colon and in the test with TK-10 renal was above 100 µM in each case. The TGI in the test on U251 CNS was above 100 µM.
On to `O=C(N/C(=C\c1ccc(/C=C(\NC(=O)c2ccccc2)c2nc3ccccc3s2)cc1)c1nc2ccccc2s1)c1ccccc1`, for which the TGI was 32.3 µM with HOP-62 NSCLC; above 100 µM with K-562 leukemia; 37.3 µM in the test on RPMI-8226 leukemia; 32.6 µM with RXF 393 renal; 16.1 µM in the test on SF-295 CNS; 26.7 µM in the test with SNB-75 CNS. The TGI with SW-620 colon worked out at 14.8 µM; in the test on TK-10 renal it was 25.2 µM; in the test on U251 CNS, 6.2 µM.
Take `CS(=O)(=O)N(CCC#N)c1ccc(C=O)cc1`: the TGI in the test on HOP-62 NSCLC, in the test on K-562 leukemia, with RPMI-8226 leukemia, in the test on SF-295 CNS, in the test on SNB-75 CNS and with SW-620 colon was above 100 µM in each case. The TGI in the test on U251 CNS is above 100 µM.
Turning to `O=C(NC1C2CC3CC(C2)CC1C3)/C(Cl)=C1/Sc2ccccc2NC1=O` (centres undefined), the TGI in the test with HOP-62 NSCLC, in the test with K-562 leukemia, in the test on RXF 393 renal, in the test on SF-295 CNS, in the test on SNB-75 CNS and with SW-620 colon was above 100 µM in each case. Also, the TGI in the test with TK-10 renal and in the test on U251 CNS was above 100 µM each time.
Regarding `O=c1cccccc1[O-].O=c1cccccc1[O-].O=c1cccccc1[O-].[Ce+3]`, the results for the GI50 with HOP-62 NSCLC and with U251 CNS were 17.4 µM and 18.3 µM, respectively. Also, the TGI in the test on HOP-62 NSCLC is 45.3 µM; with K-562 leukemia, above 100 µM; with RPMI-8226 leukemia it was above 100 µM; in the test with RXF 393 renal it was 40.4 µM; in the test on SF-295 CNS it was 78.1 µM; with SW-620 colon, above 100 µM. Moreover, the values for the TGI in the test with TK-10 renal and in the test with U251 CNS were 65.2 µM and 93.6 µM, respectively.
Take `Fc1ccc2c(c1)C1=C(CO2)C(c2ccc(Cl)cc2)NC(=S)N1` (centres undefined): the GI50 was 30.4 µM in the test on K-562 leukemia; 11.1 µM in the test on RPMI-8226 leukemia; 15.6 µM in the test with SF-295 CNS; 96.8 µM in the test with SNB-75 CNS; 27.3 µM with SW-620 colon; 59.1 µM in the test with TK-10 renal. In addition, in the test on U251 CNS, the GI50 is 18.7 µM. The TGI with K-562 leukemia is above 100 µM; in the test on RPMI-8226 leukemia it was 34.5 µM; in the test on SF-295 CNS, 47.3 µM; in the test on SNB-75 CNS it was above 100 µM; in the test on SW-620 colon, 93.8 µM; in the test on TK-10 renal, above 100 µM. Moreover, in the test on U251 CNS, the TGI was 63.1 µM.
`COc1ccc2c(CCNC(=O)/C=C/c3ccccc3)c(C(C)=O)[nH]c2c1[N+](=O)[O-]`: the TGI in the test on HOP-62 NSCLC was 76.2 µM; in the test with K-562 leukemia it was above 100 µM; with RPMI-8226 leukemia it was above 100 µM; in the test with SF-295 CNS, 12.7 µM; in the test on SW-620 colon, above 100 µM; in the test on U251 CNS, above 100 µM.
`Cn1c(=O)c(C(=O)NC(=O)NCCCCCOC(=O)CCCCCCCCCCC(=O)OCCCCCNC(=O)NC(=O)c2cn(Cc3ccccc3)c(=O)n(C)c2=O)cn(Cc2ccccc2)c1=O`: the TGI in the test on HOP-62 NSCLC, in the test on K-562 leukemia, with RPMI-8226 leukemia, with RXF 393 renal, in the test on SNB-75 CNS and in the test with SW-620 colon was above 100 µM throughout. For the same compound, the TGI with TK-10 renal and with U251 CNS was above 100 µM throughout.
Regarding `CC(=O)OC1CCC2C(=CCC3C2(C)C(=O)CC2(C)C(C4(C)OC(C(C)C)=CC4=O)C(O)CC32C)C1(C)C` (centres undefined), the TGI is above 100 µM in the test with HOP-62 NSCLC; above 100 µM in the test on K-562 leukemia; 56.7 µM with RPMI-8226 leukemia; above 100 µM in the test on SNB-75 CNS; above 100 µM with SW-620 colon; above 100 µM with U251 CNS.
As to `CC(=O)[O-].[Zn].c1ccc(/C(=N\Nc2ccccn2)c2ccccn2)cc1`, the GI50 in the test on HOP-62 NSCLC is 0.591 µM; in the test on SF-295 CNS, 0.46 µM; in the test on SW-620 colon it was 0.0319 µM; with U251 CNS, 0.482 µM. Also, the TGI in the test on HOP-62 NSCLC came to 1.81 µM; in the test on K-562 leukemia it was 2.35 µM; in the test with RPMI-8226 leukemia, 2.86 µM; in the test on SF-295 CNS it was 12.3 µM; in the test with SNB-75 CNS, 2.63 µM; with SW-620 colon it was 1.63 µM. Further, the figures for the TGI with TK-10 renal and with U251 CNS were 3.34 µM and 1.88 µM, respectively.
`C=C1CCCC2[C@](C)(CC3=C(O)C(=O)C=C(OC)C3=O)[C@@H](C)CC[C@]12C` (some centres undefined): the TGI with K-562 leukemia is above 100 µM; with RPMI-8226 leukemia it was 40.2 µM; in the test with RXF 393 renal, 10.6 µM; in the test with SF-295 CNS it was 13.7 µM; with SNB-75 CNS, above 100 µM; in the test with SW-620 colon, 53.3 µM. Moreover, the TGI with TK-10 renal and in the test on U251 CNS was above 100 µM throughout.
